How the values were obtained:
[1] = molecular target: T1, adrenal membrane angiotensin II receptor (Oryctolagus cuniculus, UniProt P34976); assay: Test A: binding affinity to the adrenal membrane angiotensin II receptor in vitro; design: species or system rabbit (male New Zealand white); conditions: rabbit adrenal membranes, 0.05 nM [^125 I]angiotensin II, 60 minutes at 25° C.; read-out: Ki from Test A
T1 construct: Aliquots of rabbit adrenal membranes containing 10-30 μg protein were incubated; from tissue; host or cells: adrenal gland membranes of male New Zealand white rabbits
T1 sequence (P34976 1-359): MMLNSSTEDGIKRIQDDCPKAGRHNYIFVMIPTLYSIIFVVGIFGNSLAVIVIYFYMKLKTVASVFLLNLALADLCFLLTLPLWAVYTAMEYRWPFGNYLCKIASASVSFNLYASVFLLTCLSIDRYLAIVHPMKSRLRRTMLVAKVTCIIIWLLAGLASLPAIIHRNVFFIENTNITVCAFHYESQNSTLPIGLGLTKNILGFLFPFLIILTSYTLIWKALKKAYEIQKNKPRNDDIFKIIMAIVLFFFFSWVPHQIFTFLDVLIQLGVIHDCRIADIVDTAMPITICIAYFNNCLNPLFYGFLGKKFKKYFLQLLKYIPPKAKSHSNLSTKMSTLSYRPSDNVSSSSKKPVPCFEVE
Protocol: In test A the binding affinity of compounds to the adrenal membrane angiotensin II receptor was determined in vitro and in tests B and C the antihypertensive effect of the compounds was measured in vivo. A detailed description of the tests follows. Test A 1) Preparation of Membranes Adrenal glands from male New Zealand white rabbits were homogenised on ice in 20 mM aqueous sodium bicarbonate solution containing 50 μM PMSF (phenylmethanesulphonyl fluoride) (2 ml/g wet weight) using a Polytron (Trademark) homogeniser for 3×15 seconds at setting 8. The homogenate was centrifuged at 900 g for 10 minutes at 4° C. and the pellet was discarded. The supernatant was recentrifuged at 30000 g for 30 minutes at 4° C., and the resulting pellet was resuspended in assay buffer (50 mM Tris-HCl, pH 7.4, containing 1 mM EDTA, 6.5 mM MgCl2, 125 mM NACl, 50 μM PMSF, 5 μg/ml pepstatin and 50 μg/ml each of leupeptin, antipain, aprotinin and chymostatin): 10 ml per g original tissue wet weight. Polyethylene glycol was added (final concentration 30%) as a cryopreservant and the membrane preparation divided into aliquots and stored at -80° C. until required. Protein was determined by a modification of the method of Lowry (Markwell et al, (1978) Anal. Biochem., 87: 206-210). 2) Binding Assay Aliquots of rabbit adrenal membranes containing 10-30 μg protein were incubated with 0.05 nM [^125 I]angiotensin II in the presence or absence of potential angiotensin II antagonists in 1 ml polyamide tubes in a total volume of 200 μI assay buffer. After incubation for 60 minutes am 25° C. the reaction was terminated by the addition of ice-cold assay buffer, and the bound and free radioactivity was separated through Skatron (Trademark) receptor-binding filters, pre-wetted with assay buffer, using a Skatron cell harvester. The filters were washed with ice-cold phosphate buffered saline, dried, and the trapped radioactivity was determined using a gamma counter. Non-specific binding, measured in the presence of 2 μM unlabelled angiotensin II, was subtracted from total binding to obtain specific binding. Radioligand binding curves were analysed using EBDA and LIGAND (Cambridge Biosoft). Values for binding affinity were obtained by nonlinear regression analysis of untransformed data. The activities of the compounds described in the Examples given hereinafter are set out below in Table A, Column 1.

[2] = Hygroscopicity observed in preparation; assay type: physicochemical; conditions: dried before use by heating in vacuo

Compound | Ki [1] [nM] | hygroscopic [2]
CCc1nc2c(C)cc(C)nc2n1Cc1ccc(-c2ccccc2-c2c(OC(C)OC(=O)C(C)(C)C)c(=O)c2=O)cc1 (stereo not shown) [Example 17, 1-[2-[4'-(2-ethyl-5,7-dimethyl-3H-imidazo[4,5-b]pyrid-3-ylmethyl)biphenyl-2-yl]-3,4-dioxocyclobut-1-en-1-yloxy]ethyl pivalate 0.22 ethyl acetate solvate] | 21.5 | appeared to be hygroscopic
CCc1nc2c(C)cc(C)nc2n1Cc1ccc(-c2ccccc2-c2c(N(C)C)c(=O)c2=O)cc1 [Example 16, 3-dimethylamino-4-[4'-(2-ethyl-5,7-dimethyl-3H-imidazo-[4,5-b]pyrid-3-ylmethyl)biphenyl-2-yl]cyclobut-3-ene-1,2-dione] | 1890 | appeared to be hygroscopic
